According to ChEMBL document CHEMBL1201862, “PubChem BioAssay data set” (2004):
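Protocol summary: plate cells (96-well), add compound at 5 concentrations, incubate 48 h, interpolate endpoints linearly. GI50 = concentration required for 50% inhibition of growth.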 Activity calls are given as the source filed them. Cut-off read from the data, not from the text of the source: active = GI50 up to about 1.1 µM and inactive = higher.

How the values were obtained:
Assay in all cases: NCI-60 cell line screen, 48 h
[1] = test system: A549
[2] = test system: SK-MEL-5
[3] = test system: M14
[4] = test system: DU-145
[5] = test system: HOP-92
[6] = test system: K562
[7] = test system: BT-549
[8] = test system: U-251
[9] = test system: UACC-62
[10] = test system: SF-268
[11] = test system: HOP-62
[12] = test system: SW-620
[13] = test system: OVCAR-4
[14] = test system: MDA-MB-435
[15] = test system: NCI-H226
[16] = test system: A498
[17] = test system: TK-10
[18] = test system: MDA-MB-231
[19] = test system: KM12
[20] = test system: UO-31
[21] = test system: SK-MEL-28
[22] = test system: 786-0
[23] = test system: OVCAR-5
[24] = test system: HCC 2998
[25] = test system: OVCAR-3
[26] = test system: SF-295
[27] = test system: SN12C
[28] = test system: MOLT-4
[29] = test system: SNB-19
[30] = test system: Malme-3M
[31] = test system: LOX IMVI
[32] = test system: NCI-H522
[33] = test system: Hs-578T
[34] = test system: CCRF-CEM
[35] = test system: RXF 393
[36] = test system: COLO 205
[37] = test system: T47D
[38] = test system: PC-3
[39] = test system: HCT-116
[40] = test system: NCI-H460
[41] = test system: MDA-N
[42] = test system: UACC-257
[43] = test system: OVCAR-8
[44] = test system: ACHN
[45] = test system: EKVX
[46] = test system: HCT-15
[47] = test system: MCF7
[48] = test system: CAKI-1
[49] = test system: IGROV-1
[50] = test system: RPMI-8226
[51] = test system: SK-OV-3
[52] = test system: SNB-75
[53] = test system: NCI-H23
[54] = test system: HT-29
[55] = test system: NCI/ADR-RES
[56] = test system: HL-60
[57] = test system: SK-MEL-2
[58] = test system: SF-539
[59] = test system: SR

Compound: COc1ccc(CC(N)c2ccc(OC)cc2)cc1 (stereo not given)
- GI50 [1]: > 100 µM (inactive)
- GI50 [2]: 43.4 µM (inactive)
- GI50 [3]: 48 µM (inactive)
- GI50 [4]: > 100 µM (inactive)
- GI50 [5]: 29.4 µM (inactive)
- GI50 [6]: 33.1 µM (inactive)
- GI50 [7]: > 100 µM (inactive)
- GI50 [8]: 95.3 µM (inactive)
- GI50 [9]: 71.3 µM (inactive)
- GI50 [10]: > 100 µM (inactive)
- GI50 [11]: > 100 µM (inactive)
- GI50 [12]: > 100 µM (inactive)
- GI50 [13]: > 100 µM (inactive)
- GI50 [14]: 37.2 µM (inactive)
- GI50 [15]: 76.2 µM (inactive)
- GI50 [16]: > 100 µM (inactive)
- GI50 [17]: > 100 µM (inactive)
- GI50 [18]: 84.9 µM (inactive)
- GI50 [19]: 50 µM (inactive)
- GI50 [20]: 90.6 µM (inactive)
- GI50 [21]: 38.4 µM (inactive)
- GI50 [22]: > 100 µM (inactive)
- GI50 [23]: > 100 µM (inactive)
- GI50 [24]: 18.3 µM (inactive)
- GI50 [25]: > 100 µM (inactive)
- GI50 [26]: > 100 µM (inactive)
- GI50 [27]: > 100 µM (inactive)
- GI50 [28]: 57.8 µM (inactive)
- GI50 [29]: > 100 µM (inactive)
- GI50 [30]: 37.4 µM (inactive)
- GI50 [31]: 57.5 µM (inactive)
- GI50 [32]: > 100 µM (inactive)
- GI50 [33]: 43.9 µM (inactive)
- GI50 [34]: 70.5 µM (inactive)
- GI50 [35]: 72.1 µM (inactive)
- GI50 [36]: 18.2 µM (inactive)
- GI50 [37]: 46.3 µM (inactive)
- GI50 [38]: 42.8 µM (inactive)
- GI50 [39]: 92.9 µM (inactive)
- GI50 [40]: 39.9 µM (inactive)
- GI50 [41]: 36.8 µM (inactive)
- GI50 [42]: 42 µM (inactive)
- GI50 [43]: > 100 µM (inactive)
- GI50 [44]: > 100 µM (inactive)
- GI50 [45]: > 100 µM (inactive)
- GI50 [46]: > 100 µM
- GI50 [47]: 44.5 µM (inactive)
- GI50 [48]: > 100 µM (inactive)
- GI50 [49]: 66.7 µM (inactive)
- GI50 [50]: 28.1 µM (inactive)
- GI50 [51]: 71.4 µM (inactive)
- GI50 [52]: 77.1 µM (inactive)
- GI50 [53]: > 100 µM (inactive)
- GI50 [54]: 45.4 µM (inactive)
- GI50 [55]: > 100 µM (inactive)
- GI50 [56]: 49.7 µM (inactive)

Compound: C=CCC(C(=O)Nc1cccc2nc[nH]c12)C(=O)OCC (stereo not given)
- GI50 [1]: > 100 µM (inactive)
- GI50 [3]: > 100 µM (inactive)
- GI50 [4]: > 100 µM (inactive)
- GI50 [5]: > 100 µM (inactive)
- GI50 [6]: > 100 µM (inactive)
- GI50 [7]: > 100 µM (inactive)
- GI50 [8]: > 100 µM (inactive)
- GI50 [9]: 85.3 µM (inactive)
- GI50 [10]: > 100 µM (inactive)
- GI50 [11]: > 100 µM (inactive)
- GI50 [12]: > 100 µM (inactive)
- GI50 [13]: 43.1 µM (inactive)
- GI50 [14]: > 100 µM (inactive)
- GI50 [15]: > 100 µM (inactive)
- GI50 [16]: > 100 µM (inactive)
- GI50 [57]: > 100 µM (inactive)
- GI50 [17]: > 100 µM (inactive)
- GI50 [18]: > 100 µM (inactive)
- GI50 [19]: > 100 µM (inactive)
- GI50 [20]: > 100 µM (inactive)
- GI50 [21]: > 100 µM (inactive)
- GI50 [22]: > 100 µM (inactive)
- GI50 [23]: > 100 µM (inactive)
- GI50 [24]: > 100 µM (inactive)
- GI50 [25]: > 100 µM (inactive)
- GI50 [26]: > 100 µM (inactive)
- GI50 [27]: > 100 µM (inactive)
- GI50 [28]: > 100 µM (inactive)
- GI50 [29]: > 100 µM (inactive)
- GI50 [31]: > 100 µM (inactive)
- GI50 [32]: > 100 µM (inactive)
- GI50 [33]: > 100 µM (inactive)
- GI50 [37]: > 100 µM (inactive)
- GI50 [38]: > 100 µM (inactive)
- GI50 [39]: > 100 µM (inactive)
- GI50 [40]: > 100 µM (inactive)
- GI50 [41]: > 100 µM (inactive)
- GI50 [42]: > 100 µM (inactive)
- GI50 [43]: > 100 µM (inactive)
- GI50 [44]: > 100 µM (inactive)
- GI50 [45]: > 100 µM (inactive)
- GI50 [58]: > 100 µM (inactive)
- GI50 [46]: > 100 µM
- GI50 [47]: > 100 µM (inactive)
- GI50 [49]: > 100 µM (inactive)
- GI50 [50]: > 100 µM (inactive)
- GI50 [51]: > 100 µM (inactive)
- GI50 [52]: > 100 µM (inactive)
- GI50 [54]: > 100 µM (inactive)
- GI50 [55]: 83.6 µM (inactive)
- GI50 [59]: > 100 µM (inactive)
- GI50 [56]: 33.2 µM (inactive)

Compound: COc1cc(-c2c[nH]c3ccccc23)nc(-c2c[nH]c3ccccc23)n1
- GI50 [1]: 3.27 µM (inactive)
- GI50 [2]: 5 µM (inactive)
- GI50 [3]: 4.07 µM (inactive)
- GI50 [4]: 11.3 µM (inactive)
- GI50 [5]: 2.34 µM (inactive)
- GI50 [6]: 3.96 µM (inactive)
- GI50 [7]: 15.9 µM (inactive)
- GI50 [8]: 4.19 µM (inactive)
- GI50 [9]: 6.18 µM (inactive)
- GI50 [10]: 14.7 µM (inactive)
- GI50 [11]: 8.89 µM (inactive)
- GI50 [12]: 7.62 µM (inactive)
- GI50 [13]: 8.81 µM (inactive)
- GI50 [14]: 5.77 µM (inactive)
- GI50 [16]: 2.3 µM (inactive)
- GI50 [57]: 4.94 µM (inactive)
- GI50 [17]: 7.98 µM (inactive)
- GI50 [18]: 2.49 µM (inactive)
- GI50 [19]: 4.18 µM (inactive)
- GI50 [20]: 5.53 µM (inactive)
- GI50 [22]: 1.86 µM (inactive)
- GI50 [23]: 8.13 µM (inactive)
- GI50 [24]: 4.22 µM (inactive)
- GI50 [25]: 6.71 µM (inactive)
- GI50 [26]: 3.13 µM (inactive)
- GI50 [28]: 2.9 µM (inactive)
- GI50 [29]: 5.26 µM (inactive)
- GI50 [31]: 4.84 µM (inactive)
- GI50 [33]: 16.3 µM (inactive)
- GI50 [34]: 1.13 µM (inactive)
- GI50 [36]: 8.32 µM (inactive)
- GI50 [37]: 5.19 µM (inactive)
- GI50 [38]: 2.84 µM (inactive)
- GI50 [39]: 3.43 µM (inactive)
- GI50 [40]: 3.08 µM (inactive)
- GI50 [41]: 4.05 µM (inactive)
- GI50 [42]: 8.91 µM (inactive)
- GI50 [43]: 4.97 µM (inactive)
- GI50 [44]: 2.61 µM (inactive)
- GI50 [45]: 5.56 µM (inactive)
- GI50 [58]: 7.14 µM (inactive)
- GI50 [46]: 5.61 µM
- GI50 [47]: 3.56 µM (inactive)
- GI50 [48]: 5.89 µM (inactive)
- GI50 [49]: 1.85 µM (inactive)
- GI50 [50]: 2.8 µM (inactive)
- GI50 [51]: 10.9 µM (inactive)
- GI50 [52]: 6.1 µM (inactive)
- GI50 [54]: 3.63 µM (inactive)
- GI50 [55]: 8.87 µM (inactive)
- GI50 [59]: 9.53 µM (inactive)
- GI50 [56]: 3.43 µM (inactive)
